Our source for the IC50 values is patent US20070249590A1, “Substituted indolo[2,3-a]pyrrolo[3,4-c]carbazole compounds useful in treating kinase disorders” (priority 2005, published 2007).

SMILES strings stand for the structures. pIC50: −log10 of the molar value.

This experiment addresses T1, JAK3 (JH1 and JH2 domain) (Homo sapiens, UniProt P52333).
T1 sequence (P52333 521-1111 limits assumed): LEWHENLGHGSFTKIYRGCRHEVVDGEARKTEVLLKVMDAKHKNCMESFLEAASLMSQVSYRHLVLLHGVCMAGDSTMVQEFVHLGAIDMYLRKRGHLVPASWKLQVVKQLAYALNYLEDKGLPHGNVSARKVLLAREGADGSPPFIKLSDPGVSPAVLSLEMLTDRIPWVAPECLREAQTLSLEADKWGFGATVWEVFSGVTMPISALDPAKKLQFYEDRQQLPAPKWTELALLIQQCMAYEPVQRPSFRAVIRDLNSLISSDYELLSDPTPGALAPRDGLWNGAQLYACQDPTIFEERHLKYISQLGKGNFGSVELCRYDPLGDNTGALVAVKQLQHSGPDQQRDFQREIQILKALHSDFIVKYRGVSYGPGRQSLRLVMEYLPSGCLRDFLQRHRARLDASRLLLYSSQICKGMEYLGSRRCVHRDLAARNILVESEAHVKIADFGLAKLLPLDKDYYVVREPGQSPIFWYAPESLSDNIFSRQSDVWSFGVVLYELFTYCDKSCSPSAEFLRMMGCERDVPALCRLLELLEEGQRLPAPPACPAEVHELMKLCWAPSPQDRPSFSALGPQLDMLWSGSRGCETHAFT
Put plainly: JAK3 Kinase Assay (ELISA of peptide substrate phosphorylation). The experiment is classed as biochemical. To be noted: purified JAK3 enzyme, 10 μM ATP, biotinylated peptide substrate, 1 hour at room temperature. As to the method:
JAK3 enzyme activity was assayed relative to enzyme phosphorylation using the method described herein.
Sf21 cells derived from the ovarian tissue of the fall armyworm Spodotera frugiperda were obtained from Pharmingen (San Diego, Calif.) and maintained at a temperature of about 26-28° C. in 1 l Bellco spinner flasks at 60-90 rpm. Cell viability was maintained at 95-100%, as determined by a tryptan blue dye exclusion test.
Sf21 cells were infected with a baculovirus expression vector for JAK3 (JH1 and JH2 domain). After 48 hours of infection, cells were harvested and lysed in Tris-saline (pH 7.6) containing 2% NP-40 and a combination of protease inhibitors (Aprotinin, Pepstatin A, Pefabloc, E-64, Leupeptin, and Benzamidine) on ice for 45 minutes.
The JAK3 enzyme was purified from the lysate using glutathione sepharose beads and the enzyme activity was assessed in Costar flat bottom EIA/RIA 96 well plates. The plates were coated with Neutravidin (110 μL) (Pierce Neutravidin Biotin-binding Protein 31000; 1 mg/mL 1:100) diluted in PBS for 1 hour at room temperature. The plates were washed with PBS-0.1% Tween (3 times) to remove unbound Neutravidin, then 1% BSA (150 NIL) in PBS was added to each well to block non-specific binding. The plates was incubated for 1 hour at room temperature and stored at −80° C. until use.
JAK3 enzyme solution (48 μL) in 1.25×TK buffer (62.5 mM HEPES pH 7.5, 12.5 mM MgCl2) containing DTT (42 mM) (Sigma, St. Louis, Mo.) was added to each well of a polypropylene 96 well plate.
A test compound (5 μL) diluted in DMSO (48 μL) and biotinylated peptide enzyme substrate (5 μg diluted in TK buffer containing 10 μM ATP) were added to each well using the double dispense feature of a multichannel electronic biohit. Control wells received DMSO vehicle (5 μL). The contents of the wells were mixed for approximately 8 seconds using a multitube vortexer and the reaction mixture was incubated for 1 hour at room temperature.
After incubation, an aliquot of reaction mixture (90 μL) was transferred into a washed Neutravidin coated plate. The plate was incubated for 15 minutes at room temperature and washed 3 times with PBS-T. PY99 anti-phosphotyrosine antibody (100 μL/well) (Santa Cruz #sc-7020HRP diluted 1:6000 in 1× antibody buffer) was added into each well and the plate was incubated for 40 minutes at room temperature. The antibody buffer contained 10% BSA, 100 mM Tris (pH 7.5), 1M NaCl and 1% Tween 20. The plate washed 3 times with PBS-T, then TMB (100 pLXSigma, St. Louis, Mo.) was added to the each well. The plate was incubated for another 40 mins at room temperature in the dark. The reaction was stopped by the addition of 1M H2SO4 (50 μL/well) and the optical density was read at 450/650 nm.
Test compounds were assayed in triplicate at 16 concentrations at half-log dilutions starting at 200 μM. A maximum and minimum signal for the assay was determined on each plate. The percent inhibition of a test compound was calculated according to the formula [formula]
For a series of test concentrations, the IC50 was derived by graphing percent inhibition against the log of the concentrations tested for a given compound. For those compounds without an IC50, the percent inhibition results are shown at a test concentration of 1 μM.
For orientation: ELISA stands for enzyme-linked immunosorbent assay.
In the case of `O=C1NCc2c1c1c3ccccc3n3c1c1c2c2ccccc2n1CC(O)(COC(=O)N1CCN(C2CCCCC2)CC1)C3` (stereo not shown) [Cpd 142, 12,13-{2-hydroxy-2-[(4-cyclohexyl-piperazin-1-yl)carbonyloxymethyl]-propan-1,3-yl}-6,7,12,13-tetrahydro-5-oxo-5H-indolo[2,3-a]pyrrolo[3,4-c]carbazole], the pIC50 was under 6.70.
Under `O=C1NC(=O)c2c1c1c3ccccc3n3c1c1c2c2ccccc2n1CC(O)(C(=O)N1CCN(c2ccccn2)CC1)C(O)C3` (stereo not shown) [Cpd 131, 12,13-{2-[(4-pyridin-2-yl-piperazin-1-yl)carbonyl]-2,3-dihydroxy-butan-1,4-yl}-12,13-dihydro-5,7-dioxo-6H-indolo[2,3-a]pyrrolo[3,4-c]carbazole] stands 7.11; under `CC(C)(C)NC(=O)OC1CCn2c3ccccc3c3c4c(c5c6ccccc6n(c5c32)C1)C(=O)NC4=O` (stereo not shown) [Cpd 40, 12,13-[2-(t-butylcarbamoyloxy)-butan-1,4-yl]-12,13-dihydro-5,7-dioxo-6H-indolo[2,3-a]pyrrolo[3,4-c]carbazole], under 6.40; under `COCCNC(=O)OCC1(O)Cn2c3ccccc3c3c4c(c5c6ccccc6n(c5c32)C1)C(=O)NC4` (stereo not shown) [Cpd 136, 12,13-{2-hydroxy-2-[(2-methoxy-ethyl)carbamoyloxymethyl]-propan-1,3-yl}-6,7,12,13-tetrahydro-5-oxo-5H-indolo[2,3-a]pyrrolo[3,4-c]carbazole], 6.91.
Under `O=C1NCc2c1c1c3ccccc3n3c1c1c2c2ccccc2n1CCOCC3` [Cpd 29, 12,13-(3-oxa-pentan-1,5-yl)-6,7,12,13-tetrahydro-5-oxo-5H-indolo[2,3-a]pyrrolo[3,4-c]carbazole] stands 7.85.
As for `CC(C)(C)OC(=O)NC1CCN(C(=O)OCC2(O)Cn3c4ccccc4c4c5c(c6c7ccccc7n(c6c43)C2)C(=O)NC5)CC1` (stereo not shown) [Cpd 175, 12,13-{2-hydroxy-2-[(4-t-butoxyamido-piperidin-1-yl)carbonyloxymethyl]-propan-1,3-yl}-6,7,12,13-tetrahydro-5-oxo-5H-indolo[2,3-a]pyrrolo[3,4-c]carbazole], the figure is 6.61.
As to `O=C1NC(=O)c2c1c1c3ccccc3n3c1c1c2c2ccccc2n1CC(OC(=O)N1CCN(C(=O)CN2CCCC2)CC1)C(O)C3` (stereo not shown) [Cpd 95, 12,13-[2-({4-[(pyrrolidin-1-yl-methyl)carbonyl]piperazin-1-yl}carbonyloxy)-3-hydroxy-butan-1,4-yl]-12,13-dihydro-5,7-dioxo-6H-indolo[2,3-a]pyrrolo[3,4-c]carbazole], the negative-log IC50 (pIC50) is 6.80.
On to `O=C1NC(=O)c2c1c1c3ccccc3n3c1c1c2c2ccccc2n1CC(OC(=O)N1CCN(C(c2ccccc2)c2ccccc2)CC1)CC3` (stereo not shown) [Cpd 62, 12,13-{2-[(4-benzhydryl-piperazin-1-yl)carbonyloxy]-butan-1,4-yl}-12,13-dihydro-5,7-dioxo-6H-indolo[2,3-a]pyrrolo[3,4-c]carbazole], for which the pIC50 was 6.30.
Consider `O=C1NCc2c1c1c3cc([N+](=O)[O-])ccc3n3c1c1c2c2ccccc2n1CC(O)C(O)C3` (stereo not shown) [Cpd 191, 3-nitro-12,13-(2,3-dihydroxy-butan-1,4-yl)-6,7,12,13-tetrahydro-5-oxo-5H-indolo[2,3-a]pyrrolo[3,4-c]carbazole], for which the negative logarithm of the IC50 (pIC50) was 6.94.
As for `O=C1NCc2c1c1c3cc(/C=C/Cn4ccnc4)ccc3n3c1c1c2c2cc(CO)ccc2n1CC(CO)C3` (stereo not shown) [Cpd 223, 3-[(1E)-3-1H-imidazol-1-yl-prop-1-en-1-yl]-9-hydroxymethyl-12,13-(2-hydroxymethyl-propan-1,3-yl)-6,7,12,13-tetrahydro-5-oxo-5H-indolo[2,3-a]pyrrolo[3,4-c]carbazole], the figure is 8.52; as for `CN1CCN(CC(=O)Nc2ccc3c(c2)c2c4c(c5c6ccccc6n6c5c2n3CC(O)C(O)C6)CNC4=O)CC1` (stereo not shown) [Cpd 205, 3-{[(4-methyl-piperazin-1-yl)methylcarbonyl]amino}-12,13-(2,3-dihydroxy-butan-1,4-yl)-6,7,12,13-tetrahydro-5-oxo-5H-indolo[2,3-a]pyrrolo[3,4-c]carbazole], 7.38; as for `O=C1NCc2c1c1c3cc(Br)ccc3n3c1c1c2c2cc(CN4CCOCC4)ccc2n1CC(CO)C3` (stereo not shown) [Cpd 208, 3-bromo-9-(morpholin-4-ylmethyl)-12,13-(2-hydroxymethyl-propan-1,3-yl)-6,7,12,13-tetrahydro-5-oxo-5H-indolo[2,3-a]pyrrolo[3,4-c]carbazole], 5.50.
Under `COCCNC(=O)OCC1Cn2c3ccccc3c3c4c(c5c6ccccc6n(c5c32)C1)C(=O)NC4` (stereo not shown) [Cpd 154, 12,13-{2-[(2-methoxy-ethyl)carbamoyloxymethyl]propan-1,3-yl]-6,7,12,13-tetrahydro-5-oxo-5H-indolo[2,3-a]pyrrolo[3,4-c]carbazole] stands 7.08; under `CN(C)c1ccc(CNC(=O)OC2Cn3c4ccccc4c4c5c(c6c7ccccc7n(c6c43)CC2O)C(=O)NC5=O)cc1` (stereo not shown) [Cpd 93, 12,13-{2-[(4-dimethylamino-benzyl)carbamoyloxy]-3-hydroxy-butan-1,4-yl}-12,13-dihydro-5,7-dioxo-6H-indolo[2,3-a]pyrrolo[3,4-c]carbazole], 7.19.
As for `CN1CCN(CCCNC(=O)OC2Cn3c4ccccc4c4c5c(c6c7ccccc7n(c6c43)CC2O)C(=O)NC5=O)CC1` (stereo not shown) [Cpd 90, 12,13-(2-{[3-(4-methyl-piperazin-1-yl)prop-1-yl]carbamoyloxy}-3-hydroxy-butan-1,4-yl)-12,13-dihydro-5,7-dioxo-6H-indolo[2,3-a]pyrrolo[3,4-c]carbazole], the figure is 6.84; as for `O=C1NCc2c1c1c3ccccc3n3c1c1c2c2ccccc2n1CC(COC(=O)N1CCN(Cc2ccc4c(c2)OCO4)CC1)C3` (stereo not shown) [Cpd 170, 12,13-(2-{[4-(benzo[1,3]dioxol-5-ylmethyl)piperazin-1-yl]carbonyloxymethyl}-propan-1,3-yl}-6,7,12,13-tetrahydro-5-oxo-5H-indolo[2,3-a]pyrrolo[3,4-c]carbazole], 6.69; as for `O=C1NCc2c1c1c3ccccc3n3c1c1c2c2ccccc2n1CC(O)(COC(=O)N1CCC(CO)CC1)C3` (stereo not shown) [Cpd 143, 12,13-{2-hydroxy-2-[(4-hydroxymethyl-piperidin-1-yl)carbonyloxymethyl]-propan-1,3-yl}-6,7,12,13-tetrahydro-5-oxo-5H-indolo[2,3-a]pyrrolo[3,4-c]carbazole], about 6.70.
For the compound `O=C1NCc2c1c1c3ccccc3n3c1c1c2c2ccccc2n1CC(COC(=O)N1CCC(N2CCCC2)CC1)C3` (stereo not shown) [Cpd 162, 12,13-{2-[(4-pyrrolidin-1-yl-piperidin-1-yl)carbonyloxymethyl]-propan-1,3-yl}-6,7,12,13-tetrahydro-5-oxo-5H-indolo[2,3-a]pyrrolo[3,4-c]carbazole], the pIC50 was 6.18.
As for `O=C1NC(=O)c2c1c1c3ccccc3n3c1c1c2c2ccccc2n1CC(OC(=O)N1CCN(C2CCCCC2)CC1)C(O)C3` (stereo not shown) [Cpd 101, 12,13-{2-[(4-cyclohexyl-piperazin-1-yl)carbonyloxy]-3-hydroxy-butan-1,4-yl}-12,13-dihydro-5,7-dioxo-6H-indolo[2,3-a]pyrrolo[3,4-c]carbazole], the figure is 5.96.

A word on the pIC50: it is the negative decadic logarithm of the IC50, by convention in mol/L.
